Source: article PMC6795878, “Pentagamavunon-1 (PGV-1) inhibits ROS metabolic enzymes and suppresses tumor cell growth by inducing M phase (prometaphase) arrest and cell senescence” (Scientific Reports, 2019)

Target: T1, GST-P1 (Homo sapiens, UniProt P09211)
T1 construct: gene GSTP1; 6xHis-tagged GST-P1 recombinant protein
Experiment: GSH-CDNB conjugation assay with purified recombinant enzyme; also PGV-1 bead pulldown competed by glutathione
Assay type: biochemical

T1 sequence (P09211 2-210): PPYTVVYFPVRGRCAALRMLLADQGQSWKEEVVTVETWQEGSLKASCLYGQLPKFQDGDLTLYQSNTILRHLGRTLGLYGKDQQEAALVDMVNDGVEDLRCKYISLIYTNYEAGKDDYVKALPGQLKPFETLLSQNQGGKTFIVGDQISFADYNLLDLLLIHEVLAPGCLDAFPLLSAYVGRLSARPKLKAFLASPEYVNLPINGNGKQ

- IC50: 97.6 ± 3.8 µM
SMILES: Cc1cc(/C=C2\CC/C(=C\c3cc(C)c(O)c(C)c3)C2=O)cc(C)c1O [PGV-1]
